Measurements taken from publication PMC5456363 (PLoS ONE, 2017).
One block for each compound: values may come before it. Non-standard residues stand in square brackets, D forms with d. Residues, ends and D or L forms follow the SMILES beside them.

Assays:
thrombin = tested on: thrombin; set-up: method as in PMID 18665823; conditions: recalcified citrated plasma; cited from earlier work
human α-thrombin = target: T1, human α-thrombin (Homo sapiens, UniProt P00734); test: α-Thrombin stability assay; type: in vitro ADME; conditions: cleavage C-terminal to Arg4; 0, 1, and 24 hours
T1 construct: with human α-Thrombin for 0, 1, and 24 hours
Description: Supplementary file pone.0178943.s003.tif: S3 Fig Stability of Api88, Api137, and LVPR-Onc112 against human α-thrombin. Chromatograms recorded after incubation of Api88 (a), Api137 (b), or LVPR-Onc112 (c) with human α-Thrombin for 0, 1, and 24 hours (UV absorbance). […] (TIF) Click here for additional data file.
S1 Text. Method α-Thrombin stability assay.

[1] = Peptide stability in commercial serum (CS); type: in vitro ADME, mouse
Description: (§1) All stability tests were performed at least in triplicates.

[2] = Peptide stability in fresh blood taken by cardiac puncture into a syringe containing the peptide (blood, B); type: in vitro ADME, CD-1 mice; conditions: blood, 1 h
Description: as §1

[3] = Stability and metabolites across fresh blood, serum and plasma (all six matrices); conditions: for Overall stability / Sequential stability: fresh blood, serum, and plasma
Description: Aqueous peptide solutions (3 g/L) were filled in a sterile syringe (1 mL, Dispomed Witt oHG, Gelnhausen, Deutschland) through the front end, the stainless-steel needle was attached, and blood (200 to 300 μL) was collected via cardiac puncture to obtain a peptide concentration of approximately 31,5 μmol/L. The syringe was carefully disconnected from the needle and sealed while keeping the needle in the heart. A second empty syringe was attached to the needle and 0.5 to 0.8 mL blood were collected. In parallel, the sealed syringe was gently shaken for one minute to mix the peptide solution with blood and further incubated on a Stuart Rotator SB3 (Barloworld, Scientific LTD, Stone, Staffordshire, U.K.) placed in an incubator at 37°C. […] The plasma sample designated as “blood” (B) was precipitated with trichloroacetic acid (TCA), as described below. Blood collected in the second syringe was transferred to a polypropylene tube (Eppendorf AG, Hamburg, Germany) and a BD Microtainer® serum separator tube (SST; Becton, Dickinson and Company). Polypropylene tubes were centrifuged immediately (12,000 x g, 2 to 4 min) to obtain “direct serum” (DS) as supernatant, whereas the serum separator tubes were incubated (room temperature, 1 h), centrifuged (12,000 x g, 2 min), and collected as “activated serum” (AS). Pooled mouse serum was purchased from PAA Laboratories GmbH (Pasching, Austria) and pooled CD-1 mouse plasma containing K2EDTA or lithium heparin were obtained from Innovative Research (Novi, MI, USA).
Peptides were mixed with serum or plasma to a final concentration of 31.5 μmol/L and incubated (37°C, 750 rpm; Thermomixer, Eppendorf AG, Hamburg, Germany). Aliquots (20 or 40 μL) taken after 0 and 60 min (0, 10 and 30 min for Api88) were mixed with TCA to obtain a final concentration of 3% (w/v) and incubated on ice (10 min). After centrifugation (12,000 x g, 5 min), the supernatant was neutralized with sodium hydroxide (1 mol/L) and stored at −20°C. Samples were analyzed by RP-HPLC on a Jupiter C18-column (internal diameter: 2 mm, length: 150 mm, particle size: 5 μm, pore size: 30 nm) using a linear aqueous acetonitrile gradient containing TFA (0.1%, v/v) as ion pair reagent. Peptides were detected by recording the absorbance at 214 nm and quantified by their peak areas relative to the initial peak areas (0 min). All stability tests were performed at least in triplicates.
Metabolites were identified on an Agilent 1100 LC system (Agilent Technologies, Santa Clara, CA, USA) coupled on-line via a UV-detector (absorbance recorded at 214 nm) to the electrospray ionization source on an ion trap mass spectrometer (ESI-IT-MS, Esquire HCT, Bruker Daltonics GmbH, Bremen, Germany). Samples were separated on an Aqua C18-column (inner diameter: 2 mm, length: 150 mm, particle size: 3 μm, pore size: 12.5 nm, Phenomenex; column temperature: 60°C) at a flow rate of 0.2 mL/min using a linear gradient of aqueous acetonitrile in the presence of formic acid (FA; 0.1%, v/v) as ion pair reagent. […] The ESI-IT-MS was operated in positive ion mode. Ionization was carried out at 365°C (source temperature) using nitrogen as curtain gas (40 psi) and dry gas (9 L/min). Mass spectra were acquired for an m/z range from 400 to 1300 at a scan rate of 8100 m/z-units per second in standard enhanced mode.

[4] = set-up: method as in PMID 27067364; conditions: 25% aqueous commercial serum; cited from earlier work
[5] = mouse serum; cited from earlier work
[6] = Peptide stability in EDTA plasma (EP); type: in vitro ADME, CD-1 mouse; conditions: 37°C, 1 h, 31.5 μmol/L
Description: as §1

[7] = Peptide stability in activated serum (AS); type: in vitro ADME, CD-1 mice; conditions: 37°C, 1 h, 31.5 μmol/L
Description: as §1

[8] = Peptide stability in heparin plasma (HP); type: in vitro ADME, CD-1 mouse; conditions: 37°C, 1 h, 31.5 μmol/L
Description: as §1

[9] = intravenous application in mice; cited from earlier work
[10] = Peptide stability in direct serum (DS); type: in vitro ADME, CD-1 mice; conditions: 37°C, 1 h, 31.5 μmol/L
Description: as §1

Compound: O=C(O)CN(CCN(CC(=O)O)CC(=O)O)CC(=O)O [EDTA, ethylenediaminetetraacetic acid]
- thrombin reactivated in presence of the anticoagulant (thrombin): 0.39 U/mL

- hydrolysis by thrombin compared with Api88 (human α-thrombin): slower
- prodrug expected to be present in full serum ([1]; extrapolated from 25% serum data assuming three-fold faster degradation in full serum): 14%
- remaining at 1 h ([2]; CD-1, mouse, fresh whole blood, 37°C, 31.5 μmol/L, read-out: intact peptide remaining relative to time zero): 67 ± 4%
- sum of prodrug and released Onc112 relative to initial amount [2]: 85%
- sum of prodrug and released Onc112 relative to initial amount ([3]; all matrices except for blood, 1 h): ~100%
- Overall stability [3]: Low
- Sequential stability [3]: Blood > Serum > Plasma
Compound: CC[C@H](C)[C@H](NC(=O)[C@@H](CCCNC(=N)N)NC(=O)[C@H](CCCNC(=N)N)NC(=O)[C@@H]1CCCN1C(=O)[C@@H]1CCCN1C(=O)[C@H](CCCNC(=N)N)NC(=O)[C@@H]1CCCN1C(=O)[C@H](CCCNC(=N)N)NC(=O)[C@@H]1CCCN1C(=O)[C@H](CC(C)C)NC(=O)[C@H](Cc1ccc(O)cc1)NC(=O)[C@@H]1CCCN1C(=O)[C@@H]1CCCN1C(=O)[C@H](CCCCN)NC(=O)[C@H](CC(=O)O)NC(=O)[C@@H](NC(=O)[C@H](CCCNC(=N)N)NC(=O)[C@@H]1CCCN1C(=O)[C@@H](NC(=O)[C@@H](N)CC(C)C)C(C)C)C(C)C)C(=O)N[C@@H](Cc1ccc(O)cc1)C(=O)N[C@@H](CC(N)=O)C(=O)N[C@H](CCCNC(=N)N)C(N)=O [LVPR-Onc112, LVPRVDKPPYLPRPRPPRrIYNr-NH2] (H-LVPRVDKPPYLPRPRPPR[dR]IYN[dR]-NH2)
- Onc112 released from linker peptide [4]: 57%

- metabolised at 1 h, 31.5 μmol/L ([1]; mouse, commercial pooled serum, commercial serum, 1 hour, read-out: peptide degraded): < 2%
- intact peptide remaining relative to time zero [6]: at least 96%
- intact peptide remaining relative to time zero [7]: at least 96%
- intact peptide remaining relative to time zero [8]: at least 96%
- intact peptide remaining relative to time zero ([2]; 37°C, 31.5 μmol/L): at least 96%
- Matrix in which the metabolite was identified ([3]; LC-MS, peak area at least 1% of initially incubated peptide, B blood, DS direct serum, AS activated serum, CS commercial serum, EP EDTA plasma, HP heparin plasma, All = all six): All
- Overall stability [3]: High
- Sequential stability [3]: Blood = Plasma = Serum
- intact peptide remaining relative to time zero [10]: at least 96%
Compound: CC[C@H](C)[C@H](NC(=O)[C@@H](CCCNC(=N)N)NC(=O)[C@H](CCCNC(=N)N)NC(=O)[C@@H]1CCCN1C(=O)[C@@H]1CCCN1C(=O)[C@H](CCCNC(=N)N)NC(=O)[C@@H]1CCCN1C(=O)[C@H](CCCNC(=N)N)NC(=O)[C@@H]1CCCN1C(=O)[C@H](CC(C)C)NC(=O)[C@H](Cc1ccc(O)cc1)NC(=O)[C@@H]1CCCN1C(=O)[C@@H]1CCCN1C(=O)[C@H](CCCCN)NC(=O)[C@H](CC(=O)O)NC(=O)[C@@H](N)C(C)C)C(=O)N[C@@H](Cc1ccc(O)cc1)C(=O)N[C@@H](CC(N)=O)C(=O)N[C@H](CCCNC(=N)N)C(N)=O [Onc112, VDKPPYLPRPRPPRrIYNr-NH2] (H-VDKPPYLPRPRPPR[dR]IYN[dR]-NH2)
- serum half-life time [5]: more than 8 h
- plasma levels relative to Onc72 [9]: around fivefold

Compound: heparin
- thrombin reactivated in presence of the anticoagulant (thrombin): 0.06 U/mL
